Tests used:
[1] = target: T1, human cathepsin K (Homo sapiens, UniProt P43235); assay: Recombinant enzyme assay, human cathepsin K; type: biochemical
T1 construct: made in house; host or cells: E. coli
T1 sequence (P43235 115-329): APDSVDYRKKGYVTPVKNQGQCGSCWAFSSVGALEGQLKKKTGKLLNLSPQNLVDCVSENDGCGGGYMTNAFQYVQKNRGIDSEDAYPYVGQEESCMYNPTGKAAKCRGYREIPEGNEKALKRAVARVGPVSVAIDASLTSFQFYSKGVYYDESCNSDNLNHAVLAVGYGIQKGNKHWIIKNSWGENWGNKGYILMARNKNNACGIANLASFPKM
Description: (§1) Recombinant cathepsin K enzymes from all species were expressed in E. coli, purified and activated. Human cathepsin F and cathepsin S were expressed in Baculovirus, purified and activated. Purified human cathepsins B and H (Athens Research Technology), cathepsin L (Calbiochem), and cathepsin V (R & D Systems) were purchased.
(§2) H-D-Ala_Leu-Lys-AMC was used as the substrate in assays of cathepsin K from non-rodent species (human, dog, rabbit and guinea pig), and Z-Leu-Arg-AMC was used as the substrate in assays of cathepsin K from rodent species (mouse and rat). […]
(§3) Assays were carried out in white polystyrene 96-well plates in a final volume of 100 µL. […] Plates were read in a Fluoroskan Ascent (Thermo Labsystems, Helsinki, Finland) in kinetic mode, with excitation and emission filters of 390 and 460 nm, respectively. Rates were determined by linear regression of the fluorescence/time data in Excel. Rates were fitted by non-linear regression to either the competitive inhibition equation, with the substrate concentration fixed at the value in the assay and the KM fixed to the value previously determined, or the IC50 equation using GraphPad Prism (GraphPad, version 6, San Diego, USA) to obtain Ki or IC50 values, respectively.

[2] = target: T2, human cathepsin L (Homo sapiens, UniProt P07711); assay: Enzyme assay, human cathepsin L; type: biochemical; conditions: geometric mean
T2 construct: purchased Calbiochem
Description: as §1, §2, §3

[3] = target: T3, human cathepsin H (Homo sapiens, UniProt P09668); assay: Enzyme assay, human cathepsin H; type: biochemical
T3 construct: purchased Athens Research Technology
Description: as §1, §2, §3

[4] = tested on: urine NTX-I; assay: Monkey urine NTX-I, multiple doses; type: in vivo, cynomolgus monkeys (Macaca fascicularis)
Method: Biomarkers such as NTX-I (bone resorption) and CTX-II (cartilage degradation) are typically measured in urine. Additional experiments in which urine was collected were therefore performed. In these experiments, four cynomolgus monkeys (Macaca fascicularis) were used (Aptuit, Edinburgh, UK). The animals were healthy young females weighing 3.5–4 kg. Animals were dosed with vehicle or MIV-711 via oral gavage at a dose volume of 5 mL/kg between 7:30 and 8:30 a.m. Animals first received vehicle via oral gavage for five consecutive days. After a washout period, the animals then received MIV-711 (30 µmol/kg) via oral gavage for five consecutive days.
Urine was collected between 8–12 a.m., 12 a.m.–4 p.m. and 4 p.m.–8 a.m. on Day 1 and Day 5 of respective treatment. Biomarkers were measured in each urine sample, corrected for creatinine, and the mean value of the three samples on Day 1 and Day 5 was calculated. The effect of MIV-711 was evaluated by comparing biomarkers in urine samples collected on Day 1 and Day 5 with respective vehicle sample. [drawing 3]
The quantification of CTX-I in monkey plasma samples and human serum samples was performed using a commercially available kit (Serum CrossLaps ELISA, IDS Nordic, Herlev, Denmark). The levels of CTX-I in monkey urine samples were measured using a commercially available kit (Urine BETA CrossLaps ELISA, IDS Nordic). […]

[5] = target: T4, dog cathepsin K (Canis lupus familiaris, UniProt Q3ZKN1); assay: Recombinant enzyme assay, dog cathepsin K; type: biochemical; conditions: geometric mean
T4 construct: made in house; host or cells: E. coli
Description: as §1, §2, §3

[6] = target: T5, mouse cathepsin K (Mus musculus, UniProt P55097); assay: Recombinant enzyme assay, mouse cathepsin K; type: biochemical; conditions: footnote a: IC50
T5 construct: made in house; host or cells: E. coli
Description: as §1, §2, §3

[7] = target: T6, human cathepsin V (Homo sapiens, UniProt O60911); assay: Enzyme assay, human cathepsin V; type: biochemical
T6 construct: purchased R & D Systems
Description: as §1, §2, §3

[8] = target: T1, human cathepsin K; assay: Kinetics of inhibition by progress curve analysis; type: biochemical
Method: The kinetics of MIV-711 inhibition of human recombinant cathepsin K were measured by progress curve analysis. Briefly, 100 µmol/L substrate and 0.5 nmol/L cathepsin K were combined in 0.5 mL of buffer in a quartz cuvette and the fluorescence measured continuously in a spectrofluorometer (Hitachi F-4500, Hitachi Scientific Instruments, Woking, UK). Excitation wavelength was 385 nm and emission wavelength was 460 nm and slits were 5 and 10 nm for excitation and emission, respectively. PMT voltage was 700 V and the response time was 0.01 s. Once a linear rate was established, 5 µL MIV-711 (final assay concentration between 10 and 50 nmol/L) or 5 µL DMSO control was added and data collected until a new equilibrium rate was achieved. Data were imported into GraphPad Prism and then fitted to the Morrison equation [26] to obtain kobs. The kobs values were plotted against the inhibitor concentration and fitted to a straight line to obtain kon and koff.

T4 sequence (Q3ZKN1 116-330): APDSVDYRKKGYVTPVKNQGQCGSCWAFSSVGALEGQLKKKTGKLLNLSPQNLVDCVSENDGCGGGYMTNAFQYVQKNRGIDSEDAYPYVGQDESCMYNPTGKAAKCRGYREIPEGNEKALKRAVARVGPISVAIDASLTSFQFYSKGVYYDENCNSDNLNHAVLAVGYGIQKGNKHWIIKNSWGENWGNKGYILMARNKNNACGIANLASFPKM
T6 sequence (O60911 114-334): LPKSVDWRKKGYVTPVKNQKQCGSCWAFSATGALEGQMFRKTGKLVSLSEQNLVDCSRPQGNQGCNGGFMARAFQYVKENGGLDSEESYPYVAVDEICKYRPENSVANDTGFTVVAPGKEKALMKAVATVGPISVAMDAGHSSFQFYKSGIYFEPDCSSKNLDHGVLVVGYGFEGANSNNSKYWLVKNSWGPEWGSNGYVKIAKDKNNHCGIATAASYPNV
T5 sequence (P55097 115-329): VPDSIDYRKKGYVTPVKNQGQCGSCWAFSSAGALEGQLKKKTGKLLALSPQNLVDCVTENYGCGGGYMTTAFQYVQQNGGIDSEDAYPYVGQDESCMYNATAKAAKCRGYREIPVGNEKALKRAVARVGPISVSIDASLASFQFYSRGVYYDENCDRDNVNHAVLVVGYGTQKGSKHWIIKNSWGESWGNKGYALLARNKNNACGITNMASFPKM
T2 sequence (P07711 114-333): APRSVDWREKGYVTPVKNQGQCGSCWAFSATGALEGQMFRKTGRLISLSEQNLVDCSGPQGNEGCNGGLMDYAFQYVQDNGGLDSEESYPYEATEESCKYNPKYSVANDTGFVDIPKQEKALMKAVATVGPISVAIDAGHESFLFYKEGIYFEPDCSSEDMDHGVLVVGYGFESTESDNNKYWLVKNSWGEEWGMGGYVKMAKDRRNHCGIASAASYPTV
T3 sequence (P09668 98-335): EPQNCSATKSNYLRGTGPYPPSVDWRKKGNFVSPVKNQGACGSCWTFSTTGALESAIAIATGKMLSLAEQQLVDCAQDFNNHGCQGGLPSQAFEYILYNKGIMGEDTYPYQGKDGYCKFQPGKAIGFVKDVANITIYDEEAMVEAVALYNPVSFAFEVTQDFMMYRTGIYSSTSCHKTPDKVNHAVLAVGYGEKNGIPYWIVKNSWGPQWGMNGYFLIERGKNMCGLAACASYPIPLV

Q: What does the source list for `C#C[C@@H]1CN(C(=O)[C@H](CC(C)C)NC(=O)c2ccc(-c3nc(N4CCN(C)CC4)sc3F)cc2)[C@@H]2C(=O)CO[C@H]12` [MIV-711]?
A: Selectivity versus the other human cathepsins tested ([1]; cathepsin K vs cathepsins B, L, F, V, H, S): more than 1300 fold; Ki ([1]; human recombinant cathepsin K, geometric mean): 0.00098 µM; Ki [2]: 1.7 µM; Ki [3]: > 10 µM; Reduction of urinary NTX-I compared to vehicle ([4]; 30 µmol/kg p.o. once daily for 5 days, creatinine-corrected): 71%; Effect on urinary NTX-I compared to vehicle ([4]; single dose 30 µmol/kg p.o. (Day 1)): immediately reduced; Ki [5]: 0.0015 µM; IC50 [6]: 1 µM; Ki [7]: 4 µM; residence time ([8]; from koff): about 90 s; Ki ([8]; from kon and koff experiments, read-out: Ki from kinetic experiments): 0.0017 µM; koff rate ([8]; human cathepsin K): 0.008 s⁻¹; kon rate ([8]; human cathepsin K): 4.6e+06 M⁻¹ s⁻¹
